Test results published in patent publication US7285556B2, “Thienopyrimidine-based inhibitors of the src family” (Board of Regents, The University of Texas Systems, priority 2000, dated 2007).
Where two headings read alike, the source gives them in different places.

Legend:
Csk = biological target: T1, Csk (Homo sapiens, UniProt P41240); test: Csk tyrosine kinase activity, poly E4Y and 32P-ATP; type: biochemical
T1 construct: GST (glutathione-S-transferase) (N); made in house; host or cells: E. coli (pGEX vector)
Protocol: (§1) Recombinant human Src was expressed using the baculovirus-insect cell system and purified as published (Budde et al., 1993 and 2000). Recombinant Csk and the FGF receptor (FGFr) were expressed as glutathione-S-transferase fusion proteins using the pGEX expression vector and E. coli, and purified as described (Sun & Budde, 1995).
(§2) The tyrosine kinase activity of Src, Csk and FGFr was determined using poly E4Y and ^32P-ATP. Briefly, enzymes were assayed in a reaction mixture consisting of 0.15 M EPPS-NaOH (pH 8.0) with 6 mM MgCl2, 0.2 mM γ^32P-ATP (0.2-0.4 mCi/μmol), 10% glycerol, 0.1% Triton X-100, and poly E4Y. Poly E4Y is a synthetic peptide whose phosphorylation is measured in this assay by the addition of the radioactively labeled phosphate from the ATP (Budde et al., 1995). […] When ATP was varied (0, 50, 100 and 250 μM), poly E4Y was kept constant at 150 μg/ml.

Recombinant human Src = biological target: T2, Recombinant human Src (Homo sapiens, UniProt P12931); test: Src tyrosine kinase activity, poly E4Y and 32P-ATP; type: biochemical
T2 construct: made in house; host or cells: baculovirus-insect cell system
Protocol: as §1, §2

[1] = screening assay, 50 μg/ml poly E4Y, 0.2 mM 32P-ATP
[2] = Table 2, read-out: Src IC50 (especially good inhibitors of Src)
[3] = read-out: IC50 (preferred compounds for treatment of Src family-related disease)

T2 sequence (P12931 whole entry): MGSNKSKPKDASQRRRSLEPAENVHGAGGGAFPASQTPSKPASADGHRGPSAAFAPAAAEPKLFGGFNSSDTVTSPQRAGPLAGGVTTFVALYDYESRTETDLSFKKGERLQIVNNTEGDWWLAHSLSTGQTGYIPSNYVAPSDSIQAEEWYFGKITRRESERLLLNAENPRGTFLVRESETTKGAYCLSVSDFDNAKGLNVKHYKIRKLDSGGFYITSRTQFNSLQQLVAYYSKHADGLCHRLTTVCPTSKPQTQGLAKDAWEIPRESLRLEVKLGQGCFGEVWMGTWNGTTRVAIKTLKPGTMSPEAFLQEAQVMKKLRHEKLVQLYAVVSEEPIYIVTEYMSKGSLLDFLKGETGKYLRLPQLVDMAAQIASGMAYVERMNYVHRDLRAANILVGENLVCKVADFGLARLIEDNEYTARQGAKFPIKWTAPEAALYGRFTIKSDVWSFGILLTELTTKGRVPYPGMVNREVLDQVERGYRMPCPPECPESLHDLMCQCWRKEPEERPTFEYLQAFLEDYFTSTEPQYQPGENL

| IC50 (Csk; [1]) [nM] | IC50 (Csk; poly E4Y and 32P-ATP) [nM] | IC50 (Recombinant human Src; [2]) [nM] | IC50 (Recombinant human Src; [3]) [nM] | Compound |
| --- | --- | --- | --- | --- |
|  | > 106000 |  |  | COc1cc(C(O)c2sc3c(NN=Cc4cccs4)ncnc3c2C)cc(OC)c1OC (centres unmarked) [Compound 481, 2-Thiophenecarboxaldehyde(6-(1-hydroxy-1-[3,4,5-trimethoxyphenyl])methyl-7-methylthieno[3,2-d]pyrimidin-4-yl)hydrazone] |
|  |  | ≤ 2000 | < 2000 | Cc1c(-c2ccccc2Cl)sc2c(NN=Cc3ccc(C(=O)O)cc3)ncnc12 [Compound 390, 4-Carboxybenzaldehyde(6-(2-chlorophenyl)7-methylthieno[3,2-d]pyrimidin-4-yl)hydrazone] |
|  |  | ≤ 2000 | < 2000 | Cc1c(-c2ccccc2)sc2c(NN=Cc3ccc(C(=O)O)cc3)ncnc12 [Compound 360, 4-Carboxybenzaldehyde(7-methyl-6-phenylthieno[3,2-d]pyrimidin-4-yl)hydrazone] |
|  |  | ≤ 2000 | < 2000 | COc1ccc(C=NNc2ncnc3c(C)c(-c4cccc(CO)c4)sc23)cc1O [Compound 443, 3-Hydroxy-4-methoxybenzaldehyde(6-(3-hydroxymethylphenyl)-7-methylthieno[3,2-d]pyrimidin-4-yl)hydrazone] |
|  |  | ≤ 2000 | < 2000 | COc1ccc(C=NNc2ncnc3c(C)c(-c4ccc(C(=O)O)cc4)sc23)cc1O [Compound 456, 3-Hydroxy-4-methoxybenzaldehyde(6-(4-carboxyphenyl)-7-methylthieno[3,2-d]pyrimidin-4-yl)hydrazone] |
|  |  | ≤ 2000 | < 2000 | Cc1c(C(Cc2ccccc2)c2ccccc2)sc2c(NN=Cc3cccs3)ncnc12 (centres unmarked) [Compound 474, 2-Thiophenecarboxaldehyde(6-(1-benzyl-1-phenyl)methyl-7-methylthieno[3,2-d]pyrimidin-4-yl)hydrazone] |
|  |  | ≤ 2000 | < 2000 | Cc1c(C(O)c2cccs2)sc2c(NN=Cc3cccs3)ncnc12 (centres unmarked) [Compound 489, 2-Thiophenecarboxaldehyde(6-(1-hydroxy-1-[2-thienyl])methyl-7-methylthieno[3,2-d]pyrimidin-4-yl)hydrazone] |
|  |  | ≤ 2000 | < 2000 | COc1ccccc1-c1sc2c(NN=Cc3cccs3)ncnc2c1C [Compound 434, 2-Thiophenecarboxaldehyde(6-(2-methoxyphenyl)-7-methylthieno[3,2-d]pyrimidin-4-yl)hydrazone] |
|  |  | ≤ 2000 | < 2000 | COc1ccc(C=NNc2ncnc3c(C)c(C(O)c4ccccc4)sc23)cc1O (centres unmarked) [Compound 460, 3-Hydroxy-4-methoxybenzaldehyde(6-(1-hydroxy-1-phenyl)methyl-7-methylthieno[3,2-d]pyrimidin-4-yl)hydrazone] |
|  |  | ≤ 2000 | < 2000 | Cc1c(C(O)c2ccsc2)sc2c(NN=Cc3cccs3)ncnc12 (centres unmarked) [Compound 463, 2-Thiophenecarboxaldehyde(6-(1-hydroxy-1-[3-thienyl])methyl-7-methylthieno[3,2-d]pyrimidin-4-yl)hydrazone] |
|  |  | ≤ 2000 | < 2000 | COc1ccccc1-c1sc2c(NN=Cc3ccc(C(=O)O)cc3)ncnc2c1C [Compound 433, 4-Carboxybenzaldehyde(6-(2-methoxyphenyl)-7-methylthieno[3,2-d]pyrimidin-4-yl)hydrazone] |
|  |  | ≤ 2000 | < 2000 | COc1ccc(C=NNc2ncnc3c(C)c(C(O)c4cccnc4)sc23)cc1O (centres unmarked) [Compound 486, 3-Hydroxy-4-methoxybenzaldehyde(6-(1-hydroxy-1-[3-pyridyl])methyl-7-methylthieno[3,2-d]pyrimidin-4-yl)hydrazone] |

Continued, molecule first:

| Compound | IC50 (Csk; [1]) [nM] | IC50 (Csk; poly E4Y and 32P-ATP) [nM] | IC50 (Recombinant human Src; [2]) [nM] | IC50 (Recombinant human Src; [3]) [nM] |
| --- | --- | --- | --- | --- |
| CCCCC=NNc1ncnc2c(C)csc12 [Compound 175, Pentanal(7-methylthieno[3,2-d]pyrimidin-4-yl)hydrazone] | > 201000 |  |  |  |
| Cc1sc2c(NN=Cc3ccc(F)cc3)ncnc2c1C [Compound 93, 4-Fluorobenzaldehyde(6,7-dimethylthieno[3,2-d]pyrimidin-4-yl)hydrazone] | > 166000 |  |  |  |
| CCCOc1cccc(C=NNc2ncnc3c(C)csc23)c1 [Compound 135, 3-Propoxybenzaldehyde(7-methylthieno[3,2-d]pyrimidin-4-yl)hydrazone] | > 153000 |  |  |  |
| Cc1csc2c(NN=Cc3ccc(O)c(O)c3)ncnc12 [Compound 23, 3,4-Dihydroxybenzaldehyde(7-methylthieno[3,2-d]pyrimidin-4-yl)hydrazone] |  |  | ≤ 2000 | < 2000 |
| Cc1c(/C=C/c2ccccc2)sc2c(NN=Cc3ccc(C(=O)O)cc3)ncnc12 [Compound 448, 4-Carboxybenzaldehyde(7-methyl-6-(trans-2-phenylvinyl)-thieno[3,2-d]pyrimidin-4-yl)hydrazone] |  |  | ≤ 2000 | < 2000 |
| O=C(O)c1ccc(C=NNc2ncnc3cc(-c4ccc(F)cc4)sc23)cc1 [Compound 280, 4-Carboxybenzaldehyde(6-(4-fluorophenyl)thieno[3,2-d]pyrimidin-4-yl)hydrazone] |  |  | ≤ 2000 | < 2000 |
| Cc1c(C(O)c2ccsc2)sc2c(NN=Cc3cccnc3)ncnc12 (centres unmarked) [Compound 461, 3-Pyridinecarboxaldehyde(6-(1-hydroxy-1-[3-thienyl])methyl-7-methylthieno[3,2-d]pyrimidin-4-yl)hydrazone] |  |  | ≤ 2000 | < 2000 |
| Cc1c(CO)sc2c(NN=Cc3cccnc3)ncnc12 [Compound 476, 3-Pyridinecarboxaldehyde(6-hydroxymethyl-7-methylthieno[3,2-d]pyrimidin-4-yl)hydrazone] |  |  | ≤ 2000 | < 2000 |
| COc1ccc(-c2cc3ncnc(NN=Cc4cccnc4)c3s2)cc1 [Compound 405, 3-Pyridinecarboxaldehyde(6-(4-methoxyphenyl)thieno[3,2-d]pyrimidin-4-yl)hydrazone] |  |  | ≤ 2000 | < 2000 |
| Cc1c(C(O)c2ccsc2)sc2c(NN=Cc3ccc(C(=O)O)cc3)ncnc12 (centres unmarked) [Compound 462, 4-Carboxybenzaldehyde(6-(1-hydroxy-1-[3-thienyl])methyl-7-methylthieno[3,2-d]pyrimidin-4-yl)hydrazone] |  |  | ≤ 2000 | < 2000 |
| O=C(O)c1ccc(C=NNc2ncnc3cc(-c4ccccc4Cl)sc23)cc1 [Compound 318, 4-Carboxybenzaldehyde(6-(2-chlorophenyl)thieno[3,2-d]pyrimidin-4-yl)hydrazone] |  |  | ≤ 2000 | < 2000 |
| COc1ccc(C=NNc2ncnc3cc(-c4ccccc4Cl)sc23)cc1O [Compound 321, 3-Hydroxy-4-methoxybenzaldehyde(6-(2-chlorophenyl)thieno[3,2-d]pyrimidin-4-yl)hydrazone] |  |  | ≤ 2000 | < 2000 |
| Cc1c(C(Cc2ccccc2)c2ccccc2)sc2c(NN=Cc3cccnc3)ncnc12 (centres unmarked) [Compound 473, 3-Pyridinecarboxaldehyde(6-(1-benzyl-1-phenyl)methyl-7-methylthieno[3,2-d]pyrimidin-4-yl)hydrazone] |  |  | ≤ 2000 | < 2000 |
| Cc1c(C(O)C2CCCCC2)sc2c(NN=Cc3ccc(C(=O)O)cc3)ncnc12 (centres unmarked) [Compound 470, 4-Carboxybenzaldehyde(6-(1-cyclohexyl-1-hydroxy)methyl-7-methylthieno[3,2-d]pyrimidin-4-yl)hydrazone] |  |  | ≤ 2000 | < 2000 |
| COc1ccc(C=NNc2ncnc3c(C)c(C(O)c4ccsc4)sc23)cc1O (centres unmarked) [Compound 464, 3-Hydroxy-4-methoxybenzaldehyde(6-(1-hydroxy-1-[3-thienyl])methyl-7-methylthieno[3,2-d]pyrimidin-4-yl)hydrazone] |  |  | ≤ 2000 | < 2000 |
| COc1ccc(C=NNc2ncnc3c(C)c(C(=O)O)sc23)cc1O [Compound 468, 3-Hydroxy-4-methoxybenzaldehyde(6-carboxy-7-methylthieno[3,2-d]pyrimidin-4-yl)hydrazone] |  |  | ≤ 2000 | < 2000 |
| COc1ccc(C=NNc2ncnc3c(C)c(C(O)C4CCCCC4)sc23)cc1O (centres unmarked) [Compound 472, 3-Hydroxy-4-methoxybenzaldehyde(6-(1-cyclohexyl-1-hydroxy)methyl-7-methylthieno[3,2-d]pyrimidin-4-yl)hydrazone] |  |  | ≤ 2000 | < 2000 |
| Cc1csc2c(NN=Cc3ccc(O)c(Cl)c3)ncnc12 [Compound 55, 3-Chloro-4-hydroxybenzaldehyde(7-methylthieno[3,2-d]pyrimidin-4-yl)hydrazone] |  |  | ≤ 2000 | < 2000 |
| Cc1c(-c2cccc(CO)c2)sc2c(NN=Cc3cccnc3)ncnc12 [Compound 440, 3-Pyridinecarboxaldehyde(6-(3-hydroxymethylphenyl)-7-methylthieno[3,2-d]pyrimidin-4-yl)hydrazone] |  |  | ≤ 2000 | < 2000 |
| Cc1c(-c2ccc(C(=O)O)cc2)sc2c(NN=Cc3cccnc3)ncnc12 [Compound 453, 3-Pyridinecarboxaldehyde(6-(4-carboxyphenyl)-7-methylthieno[3,2-d]pyrimidin-4-yl)hydrazone] |  |  | ≤ 2000 | < 2000 |
| Cc1c(C(O)c2ccccc2)sc2c(NN=Cc3cccnc3)ncnc12 (centres unmarked) [Compound 457, 3-Pyridinecarboxaldehyde(6-(1-hydroxy-1-phenyl)methyl-7-methylthieno[3,2-d]pyrimidin-4-yl)hydrazone] |  |  | ≤ 2000 | < 2000 |
